Results as given in patent publication US4567162A, “Biologically active heptapeptides” (Farmitalia Carlo Erba, priority 1983, dated 1986).
Where a name gives a salt, the structure may show the parent alone. Ends that are not written are not given here. Peptide text beside a SMILES is read from it.

Assays:
[1] = tested on: protein synthesis of liver tissue; assay: In vivo-in vitro test: protein synthesis rate of liver tissue (14C amino acid incorporation in microsomal cell juice); parameters: species or system male rats (Wistar); conditions: 4 weeks; for Δ % control rat group treated: versus treated (physiological sodium chloride s.c.) control group; for Δ % control rat group untreated: versus untreated control group; for Protein synthesis rates compared with the two control groups: male rats, daily s.c.
Method: De-protecting reactions are carried out according to methods known per se in polypeptide chemistry. Peptides wherein Y represents OR are prepared, for example, starting from the C-terminal amino acid esterified by the appropriate alcohol. Peptides wherein Y represents OH can be prepared, for example, by hydrolysis of peptides wherein Y represents OR. Peptides wherein Y represents NH2, NHR or NR2 can be prepared by ammonolysis of the corresponding esters or starting from a C-terminal amino acid amidated by an appropriate amine. Hydrazido or substituted hydrazido derivatives according to the invention are prepared by condensation of the N-protected peptide or amino acid with a suitably substituted hydrazine, such as benzylcarbazate, t-butylcarbazate, adamantylcarbazate, phenylhydrazine or adamantylhydrazine, or reacting the N-protected peptide or amino acid hydrazide with a suitable alkylating agent, such as an alkyl chloride, or with a suitable acylating agent such as benzylchloroformate, t-butylchloroformate, di-t-butyldicarbonate or adamantylfluoroformate. […] The compounds according to the invention show an interesting growth promoting activity in animals determined both by the in vivo-in vitro test system on protein synthesis of liver tissue (as described by K. Kammerer and A. Dey-Hazra (1980) Vet. Med. Nachr. Nr. 2, 99-112), and by the dose-dependent increase in weight gain and feed efficiency after subcutaneous or oral administration.
The growth tests were carried out for periods of 4 weeks, using groups of 6 male rats (Wistar, Hagemann, Extertal) divided in subgroups of three animals managed in Markolon cages, good shaving as litter.
Water and feed (Altromin 1321 Standard diet containing 19% crude protein): ad libitum.
The peptides of the present invention were administered in solution s.c. daily at doses of 10, 50 and 100 ng/kg, using as diluent normal saline (starting from a stock solution with 100 ng/ml).
Homogenise 3 g liver in 9 ml TKM buffer-saccharose solution, cooled on ice, in a Potter homogeniser at 600 r.p.m. for 2 min.; centrifuge at 4° C. in an ultracentrifuge with 10,000 g for 20 min., decant the supernatant=microsomal cell juice.
After calculation of protein content in the microsomal cell juice by means of the biuret method, the protein concentration was adjusted with TKM buffer to 1 mg/ml. To that, a further dilution with bidistilled water to 0.25 mg protein per ml of the microsomal cell juice followed.
Subsequently portions of 0.15 l ml reaction medium and 0.05 ml (50 mcg) of pyruvate kinase solution, as well as 0.1 ml of ^14 C amino acid mixture (=1 μCi) were added. The volume of the incubation mixture was then 1 ml each.
After a 35 minute incubation at 37° C. in a water bath, protein precipitation was performed by adding 2 ml of trichloracetic acid (10%). The sediment was washed by several additions of trichloroacetic acid and subsequent centrifugation (3600 g/5 min) until the supernatant was free from radioactivity.
The residue was dissolved in 1.0 ml Lumasolve and left overnight at 37° C., until it was clear.
Measuring the preparation was done in a PRIAS liquid scintillation counter PL (1.0 ml+5 ml scintillation liquid).
A detailed method is described in the above cited Kammerer article.

[2] = Growth test in pigs (body weight, feed consumption, feed efficiency); format: in vivo, castrated male pigs (Hybrids)
Method: The growth test was carried out for a period of 3 weeks, using groups of 7 castrated male pigs (Hybrids) divided in subgroups and managed in cages with flat decks. The pigs were fed during the whole experimental period with grower feed (Hoveler, normal type without feed additives), 1 kg per day. Water was given ad libitum. The weights were weekly recorded.

[3] = 50 ng/kg daily injection, 3 weeks
[4] = 50 ng/kg, 3 weeks, versus untreated group 1

For `COC(=O)[C@H](CCSC)NC(=O)[C@H](Cc1c[nH]c2ccccc12)NC(=O)CNC(=O)[C@H](CC(C)C)NC(=O)[C@@H]1CCCN1C(=O)[C@@H]1CCCN1C(=O)[C@@H](N)C(C)C` [Ex. 2 (TK7D), HCl.H-Val-Pro-Pro-Leu-Gly-Trp-Met-OMe] (H-VPPLGWM-OMe), which “Δ % control rat group treated” value ([1]; 10 ng/kg daily s.c.) is on record?
The value was “+29.4%”.

What about the “Δ % control rat group untreated” value ([1]; 10 ng/kg daily s.c.) of the same compound?
The value was “+11.9%”.

What about the “Δ % control rat group treated” value ([1]; 50 ng/kg daily s.c.) of the same compound?
The value was “+38.2%”.

What about the “Δ % control rat group untreated” value ([1]; 50 ng/kg daily s.c.) of the same compound?
The value was “+19.4%”.

What about the “Δ % control rat group treated” value ([1]; 100 ng/kg daily s.c.) of the same compound?
The value was “+63.2%”.

And the “Δ % control rat group untreated” value ([1]; 100 ng/kg daily s.c.)?
Its value is “+41.0%”.

And the “Protein synthesis rates compared with the two control groups” value [1]?
Its value is “significantly different from the two control groups”.

With “VPPLGWM [Ex. 1 (TK7), H-Val-Pro-Pro-Leu-Gly-Trp-Met-OH.HCl]” as the compound, how does the “Δ % control rat group treated” value ([1]; 10 ng/kg daily s.c.) read?
Its value is “+36.1%”.

What about the “Δ % control rat group untreated” value ([1]; 10 ng/kg daily s.c.) of the same compound?
Its value is “+17.7%”.

What about the “Δ % control rat group treated” value ([1]; 50 ng/kg daily s.c.) of the same compound?
Its value is “+46.0%”.

What about the “Δ % control rat group untreated” value ([1]; 50 ng/kg daily s.c.) of the same compound?
The value was “+26.2%”.

What about the “Δ % control rat group treated” value ([1]; 100 ng/kg daily s.c.) of the same compound?
Its value is “+56.5%”.

What about the “Δ % control rat group untreated” value ([1]; 100 ng/kg daily s.c.) of the same compound?
The value was “+35.3%”.

And the “Protein synthesis rates compared with the two control groups” value [1]?
Its value is “significantly different from the two control groups”.

And the “Weight after 1 week” value ([2]; 50 ng/kg daily injection)?
Its value is 15.2 kg.

What about the “Weight after 2 weeks” value ([2]; 50 ng/kg daily injection) of the same compound?
The value was 17.8 kg.

What about the “Weight after 3 weeks” value ([2]; 50 ng/kg daily injection) of the same compound?
The value was 20.7 kg.

What about the “Weight gain” value [2, 3] of the same compound?
Its value is 9.0 kg.

And the “Weight gain in %” value [2, 3]?
The value was 76.9%.

What about the Initial weight ([2]; 50 ng/kg daily injection, baseline) of the same compound?
The Initial weight was 11.7 kg.

What about the “Feed efficiency (kg feed/kg weight gain)” value ([2]; 50 ng/kg, 3 weeks) of the same compound?
Its value is 2.33 kg feed/kg weight gain.

And the “Consumption (feed)” value ([2]; 50 ng/kg, 3 weeks, feed 1 kg per day)?
The value was 21 kg.

And the “Feed efficiency Δ % to control group” value [2, 4]?
Its value is -24.6%.

What about the “Weight gain Δ % to control group” value [2, 4] of the same compound?
The value was “+32.4%”.

And the “Weight gain (in words)” value ([2]; daily injection)?
The value was “clear increase in weight gain”.
